In patent EP2796135A1, “Use of trifluoroacetic acid and salts thereof to treat hypercholesterolemia” (POLICHEM S.A., priority 2013, dated 2014):
Where a name gives a salt, the structure may show the parent alone.

Assays:
[1] = preliminary oral study with ascending dose levels in minipigs (Example 13); type: in vivo, Göttingen minipig; details: in vivo, minipig, read-out: maximum tolerated dose
Method: (§1) A preliminary oral study of the Calcium salt of trifluoroacetic acid was performed in minipigs. One male and one female Göttingen minipig were daily treated by oral route with ascending dose levels of Calcium salt of trifluoroacetic acid, as indicated below.
(§2) The oral solutions were prepared as for Example 1.

total cholesterol [2] = test: as above; type: in vivo, Göttingen minipig; details: for decrease of total cholesterol: male
Method: as §1, §2

total cholesterol [3] = test: preliminary intravenous study in dogs, daily administration for 14 days (Example 14); type: in vivo, Beagle dogs; details: for reduction in total cholesterol: end of the 14 days of treatment
Method: A preliminary intravenous study of the Calcium salt of trifluoroacetic acid was performed in Beagle dogs after daily administration.
Dogs (2 animals/sex/group) were treated by intravenous slow injection (2.5 mL/min) with 100 and 200 mg/kg for 14 consecutive days.
(§3) The intravenous solutions were prepared as for Example 9.

total cholesterol [4] = test: intravenous study in dogs, daily administration for 4 weeks (Example 15); type: in vivo, Beagle dogs; details: for reduction in total cholesterol: intravenous, end of the 4 weeks of treatment
Method: An intravenous study of the Calcium salt of trifluoroacetic acid was performed in Beagle dogs after daily administration for 4 weeks.
Dogs (4 animals/sex/group) were treated by intravenous slow injection (2.5 mL/min) with 50, 100 and 200 mg/kg for 4 consecutive weeks.
as §3

[5] = ascending doses 50-1000 mg/kg/day
[6] = intravenous, 100 and 200 mg/kg, 14 consecutive days

## O=C(O)C(F)(F)F [Calcium salt of trifluoroacetic acid, Calcium trifluoroacetate]
[1]
  MTD: ≥ 1000 mg/kg
Total cholesterol [2]; [5]
  changes in body weight, food consumption and water consumption: No changes of toxicological relevance
  changes in hematology: No changes of note
Total cholesterol [2]; ascending doses 50-1000 mg/kg/day, one male and one female minipig
  mortality: No mortality occurred
Total cholesterol [2]; 150 mg/kg/day
  decrease of total cholesterol: 18%
Total cholesterol [2]; 200 mg/kg/day
  decrease of total cholesterol: 33%
Total cholesterol [2]; 300 mg/kg/day
  decrease of total cholesterol: 44%
Total cholesterol [2]; 600 mg/kg/day
  decrease of total cholesterol: 49%
Total cholesterol [2]; 1000 mg/kg/day
  decrease of total cholesterol: 56%
Total cholesterol [3]; females, intravenous, 100 mg/kg/day
  reduction in total cholesterol: 29%
Total cholesterol [3]; females, intravenous, 200 mg/kg/day
  reduction in total cholesterol: 16%
Total cholesterol [3]; intravenous slow injection, 100 and 200 mg/kg, 14 consecutive days
  deaths: No deaths occurred
Total cholesterol [3]; [6]
  differences in body weight, food consumption, physical examination and chemical chemistry, coagulation, organ weight: No significant differences
  findings recorded in the study: limited to the site of injection
Total cholesterol [3]; males, intravenous, 100 mg/kg/day
  reduction in total cholesterol: 18%
Total cholesterol [3]; males, intravenous, 200 mg/kg/day
  reduction in total cholesterol: 21%
Total cholesterol [4]; both sexes, intravenous, 50, 100 and 200 mg/kg, 4 weeks
  changes in body weight, food consumption and water consumption, hematological, chemical chemistry, fecal and urinalysis parameters: No changes of toxicological relevance
Total cholesterol [4]; females, 50 mg/kg/day
  reduction in total cholesterol: 20%
Total cholesterol [4]; females, 100 mg/kg/day
  reduction in total cholesterol: 29%
Total cholesterol [4]; females, 200 mg/kg/day
  reduction in total cholesterol: 24%
Total cholesterol [4]; intravenous slow injection, 50, 100 and 200 mg/kg, 4 consecutive weeks
  deaths: No deaths occurred
Total cholesterol [4]; intravenous, 50, 100 and 200 mg/kg, 4 weeks
  organ weights: unaffected
Total cholesterol [4]; intravenous, 50, 100 and 200 mg/kg, 4 weeks, findings at the site of injection minimal to moderate
  findings at the site of injection and electrographic alterations: dose dependent and reversible
Total cholesterol [4]; males, 50 mg/kg/day
  reduction in total cholesterol: 9%
Total cholesterol [4]; males, 100 mg/kg/day
  reduction in total cholesterol: 21%
Total cholesterol [4]; males, 200 mg/kg/day
  reduction in total cholesterol: 15%
